Assay results: PubChem BioAssay AID2060487 (Molecular Pharmacology Branch, DTP, NCI, 2025)

Tested on: 997537-175-T-J1-PDC complex spheroid viability
Experiment: Anticancer human tumor 997537-175-T-J1-PDC patient-derived colon adenocarcinoma cell line growth inhibition [GQUAD]
Settings: for IC50: curve of first compound; for viability, T/C: stronger effect = lower value
Procedure, shortened: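 Viability of tumor cells grown as complex spheroids with endothelial and stromal cells, exposed to drug combinations. Top concentration at or near clinical Cmax (else 10 microM), diluted in half-log increments.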

[1] = second compound 0.0316 µM, first compound 0.0316 µM
[2] = second compound 0.0316 µM, first compound 0.1 µM
[3] = second compound 0.0316 µM, first compound 0.316 µM
[4] = second compound 0.0316 µM, first compound 1 µM
[5] = second compound 0.0316 µM, first compound 3.16 µM
[6] = second compound 0.0316 µM, first compound 10 µM
[7] = second compound 0.1 µM, first compound 0.0316 µM
[8] = second compound 0.1 µM, first compound 0.1 µM
[9] = second compound 0.1 µM, first compound 0.316 µM
[10] = second compound 0.1 µM, first compound 1 µM
[11] = second compound 0.1 µM, first compound 3.16 µM
[12] = second compound 0.1 µM, first compound 10 µM
[13] = second compound 0.316 µM, first compound 0.0316 µM
[14] = second compound 0.316 µM, first compound 0.1 µM
[15] = second compound 0.316 µM, first compound 0.316 µM
[16] = second compound 0.316 µM, first compound 1 µM
[17] = second compound 0.316 µM, first compound 3.16 µM
[18] = second compound 0.316 µM, first compound 10 µM
[19] = second compound 1 µM, first compound 0.0316 µM
[20] = second compound 1 µM, first compound 0.1 µM
[21] = second compound 1 µM, first compound 0.316 µM
[22] = second compound 1 µM, first compound 1 µM
[23] = second compound 1 µM, first compound 3.16 µM
[24] = second compound 1 µM, first compound 10 µM
[25] = second compound 3.16 µM, first compound 0.0316 µM
[26] = second compound 3.16 µM, first compound 0.1 µM
[27] = second compound 3.16 µM, first compound 0.316 µM
[28] = second compound 3.16 µM, first compound 1 µM
[29] = second compound 3.16 µM, first compound 3.16 µM
[30] = second compound 3.16 µM, first compound 10 µM
[31] = second compound 10 µM, first compound 0.0316 µM
[32] = second compound 10 µM, first compound 0.1 µM
[33] = second compound 10 µM, first compound 0.316 µM
[34] = second compound 10 µM, first compound 1 µM
[35] = second compound 10 µM, first compound 3.16 µM
[36] = second compound 10 µM, first compound 10 µM
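Further: spheroids exposed to the agents for 7 days.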
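Wherever viability, T/C is given: 100% = DMSO vehicle control viability.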

With `CC(C)n1c(=O)n(C)c2cnc3cc(F)c(-c4ccc(OCCCN5CCCCC5)nc4)cc3c21` + Cc1cnc(CNC(=O)c2c(=O)c3ccc(N4CCCN(C)CC4)nc3n3c2sc2ccccc23)cn1 the IC50 (second compound 0.0316 µM) was > 10000 nM, the IC50 (second compound 0.1 µM) was > 10000 nM and the IC50 (second compound 0.316 µM) was > 10000 nM. The IC50 (second compound 1 µM) was > 10000 nM, the IC50 (second compound 3.16 µM) was > 10000 nM and the IC50 (second compound 10 µM) was > 10000 nM. It also gave a viability, T/C [1] of 112%, a viability, T/C [2] of 91.3% and a viability, T/C [3] of 104%. For the same compound, the viability, T/C [4] was 82.3%, the viability, T/C [5] was 91.9% and the viability, T/C [6] was 92.5%. It also gave a viability, T/C [7] of 95%, a viability, T/C [8] of 95.9% and a viability, T/C [9] of 91.5%. For the same compound, the viability, T/C [10] was 82.4%, the viability, T/C [11] was 82.6% and the viability, T/C [12] was 90.9%. It also gave a viability, T/C [13] of 101%, a viability, T/C [14] of 74% and a viability, T/C [15] of 101%. It also gave a viability, T/C [16] of 84.8%, a viability, T/C [17] of 108% and a viability, T/C [18] of 93.3%. The viability, T/C [19] was 95.6%, the viability, T/C [20] was 113% and the viability, T/C [21] was 111%. It also gave a viability, T/C [22] of 80%, a viability, T/C [23] of 114% and a viability, T/C [24] of 105%. It also gave a viability, T/C [25] of 87%, a viability, T/C [26] of 104% and a viability, T/C [27] of 108%. The viability, T/C [28] was 105%, the viability, T/C [29] was 122% and the viability, T/C [30] was 110%. For the same compound, the viability, T/C [31] was 87.8%, the viability, T/C [32] was 93.4% and the viability, T/C [33] was 106%. It also gave a viability, T/C [34] of 116%, a viability, T/C [35] of 98.5% and a viability, T/C [36] of 107%.
Compound `C#Cc1c(F)ccc2cc(O)cc(-c3ncc4c(N5CC6CCC(C5)N6)nc(OCC56CCCN5CC(F)C6)nc4c3F)c12` (centres undefined) + Cc1[nH]c2ccc(F)cc2c1-c1nc2c3cccnc3c3ncccc3c2[nH]1 has an IC50 (second compound 0.0316 µM) of 1870 nM, an IC50 (second compound 0.1 µM) of 1900 nM and an IC50 (second compound 0.316 µM) of 1840 nM. It also gave an IC50 (second compound 1 µM) of 1290 nM, an IC50 (second compound 3.16 µM) of 563 nM and an IC50 (second compound 10 µM) of 460 nM. The viability, T/C [1] was 87.5%, the viability, T/C [2] was 90.5% and the viability, T/C [3] was 97%. For the same compound, the viability, T/C [4] was 71.1%, the viability, T/C [5] was 29.3% and the viability, T/C [6] was 35.4%. The viability, T/C [7] was 98.8%, the viability, T/C [8] was 103% and the viability, T/C [9] was 99.6%. The viability, T/C [10] was 74.2%, the viability, T/C [11] was 30.9% and the viability, T/C [12] was 26.6%. The viability, T/C [13] was 91.6%, the viability, T/C [14] was 87.7% and the viability, T/C [15] was 85.4%. The viability, T/C [16] was 63.3%, the viability, T/C [17] was 35.4% and the viability, T/C [18] was 41%. For the same compound, the viability, T/C [19] was 95.9%, the viability, T/C [20] was 88.3% and the viability, T/C [21] was 79.6%. For the same compound, the viability, T/C [22] was 56.9%, the viability, T/C [23] was 29.5% and the viability, T/C [24] was 38.2%. The viability, T/C [25] was 89.4%, the viability, T/C [26] was 73.7% and the viability, T/C [27] was 62%. It also gave a viability, T/C [28] of 41%, a viability, T/C [29] of 21.5% and a viability, T/C [30] of 15.2%. For the same compound, the viability, T/C [31] was 70.7%, the viability, T/C [32] was 74.1% and the viability, T/C [33] was 60.6%. It also gave a viability, T/C [34] of 26.9%, a viability, T/C [35] of 10.2% and a viability, T/C [36] of 11.8%.
